“Also recorded” adds a separate entry of the source.
Tests used:
[1] = Viability in pH-adjusted MRS broths; type: physicochemical; settings: for Cell content pH 2: MRS broth adjusted with lactic acid to pH 2, 37° C.; for Cell content pH 2 / Cell content pH 3 / Cell content pH 4: 3 hours; for Cell content pH 3: MRS broth adjusted with lactic acid to pH 3, 37° C.; for Cell content pH 4: MRS broth adjusted with lactic acid to pH 4, 37° C.; for Initial content: before cultivation in pH-adjusted MRS broth
Experimental: The strains were tested at different pH values in MRS broths the pH of which had been adjusted with lactic acid to values pH 4, pH 3 and pH 2. The strain to be studied (fresh culture) was inoculated into a pH broth of 1% and grown at 37° C. for 3 hours, after which the content of live cells was determined using an agar suitable for the strain (see Table 5). The strains maintained their viability in the 3-hour process in a pH value of 3 excellently. […] In the test the bacteria were not protected by components carried by food (such as fat) and therefore they may be assumed to preserve even better when consumed in vivo together with food.

intestinal mucus [2] = test: Adhesion of the probiotic strains to intestinal mucus; type: binding; settings: for Adhesion % (+Std.): adhesion to intestinal mucus
Experimental: Adhesion of the probiotic strains to mucus was tested in accordance with Ouweland et al. (Ouwehand, A. C., Kirjavainen, P. V., Grönlund, M. -M., Isolauri, E., and Salminen, S. J. 1999. Adhesion of probiotic micro-organisms to intestinal mucus. Int. Dairy J. 9:623-630). LGG and probionic bacterium PJS adhered excellently to the intestinal mucus, Bbi99 moderately and LC705 weakly. Adhesion is a prerequisite for the microbe to produce beneficial effects in the intestines. On the other hand, LC705 is known to adhere well to epithet cells, similarly as LGG (Lehto, E. and Salminen S. 1997. Adhesion of two lactobacillus strains, one lactococcus strain and one propionibacterium strain to cultured human intestinal CaCO-2 cell lines. Bioscience Microflora 16: 13-17). This property is beneficial when there is an imbalance in the intestine and the protective mucus has been weakened.

[3] = Bile salt tolerance in MRS broths with Oxgal bile salt; type: physicochemical; settings: for Cell content Bile salt 0.3%: MRS broth with 0.3% Oxgal bile salt; for Cell content Bile salt 0.3% / Cell content Bile salt 0.5%: 3 hours, 37° C.; for Cell content Bile salt 0.5%: MRS broth with 0.5% Oxgal bile salt; for Initial content: before cultivation in bile salt MRS broth
Experimental: With regard to bile salt tolerance, the strains were tested in MRS broths that contained 0.3% and 0.5% of Oxgal (Sigma) bile salt by inoculating 1% of the fresh culture into the bile salt MRS broth to be studied. The strains were cultivated in the broths for 3 hours at 37° C., after which the content of live cells was determined using an agar suitable for the strain (see Table 5). All strains survived the treatment excellently.

intestinal mucus [4] = settings: prior-art description of the strain; cited from earlier work
[5] = test system: cultured human intestinal CaCO-2 cell lines; settings: literature / prior-art description; cited from earlier work
[6] = prior-art description of the strain; cited from earlier work

Row | Substance | Cell content pH 2 [1] | Cell content pH 3 [1] | Cell content pH 4 [1] | Initial content [1] | adhesion to the intestinal mucus (intestinal mucus [2]) | Adhesion % (+Std.) (intestinal mucus [2]) [%] | Cell content Bile salt 0.3% [3] | Cell content Bile salt 0.5% [3] | Initial content [3] | adhesion to mucus (strain description) (intestinal mucus [4]) | adhesion to epithelial cells [5] | viability in low pH values and high bile acid contents [6] | viability in pH 2 ([1]; pH 2, 3 hours)
1 | Bifidobacterium infantis Bbi99 (DSM 13692) | <10 cfu/ml | <10 cfu/ml | 2 × 10^7 cfu/ml | 1 × 10^7 cfu/ml | moderately | 4.6 ± 2.3 | 1 × 10^7 cfu/ml | 1 × 10^7 cfu/ml | 3 × 10^7 cfu/ml |  |  |  | 
2 | Lactobacillus rhamnosus GG (ATCC 53103) [LGG] | <10^2 cfu/ml | 1 × 10^7 cfu/ml | 2 × 10^7 cfu/ml | 1 × 10^7 cfu/ml | excellently | 26.3 ± 1.3 | 2 × 10^7 cfu/ml | 9 × 10^6 cfu/ml | 1 × 10^7 cfu/ml | excellent | excellent; also recorded: adhere well | survives even lower pH values as well as high bile acid contents | 
3 | Lactobacillus rhamnosus LC705 (DSM 7061) | <10^2 cfu/ml | 4 × 10^7 cfu/ml | 2 × 10^8 cfu/ml | 6 × 10^7 cfu/ml | weakly | 0.7 ± 0.2 | 2 × 10^7 cfu/ml | 1 × 10^7 cfu/ml | 1 × 10^7 cfu/ml | weakly | moderately; also recorded: adhere well | good | 
4 | Propionibacterium freudenreichii ssp. shermanii JS (DSM 7067) [PJS] | 1 × 10^4 cfu/ml | 3 × 10^7 cfu/ml | 9 × 10^7 cfu/ml | 1 × 10^8 cfu/ml | excellently | 24.9 ± 2.2 | 6 × 10^7 cfu/ml | 5 × 10^7 cfu/ml | 6 × 10^7 cfu/ml |  |  | excellent | remained viable
